{"source": "patent US11685710B2", "about": "“Cationic sulfonamide amino lipids and amphiphilic zwitterionic amino lipids” (The Board of Regents of the University of Texas System, priority 2016, dated 2023)", "system": "HeLa-Luc-Cas9 cells", "assay": "sgRNA delivery to HeLa-Luc-Cas9 cells (luciferase editing, ONE-Glo+Tox)", "format": "cell-based", "protocol": "sgRNA delivery to HeLa-Luc-Cas9 cells: Select ZALs were evaluated in the delivery of single guide RNA (sgRNA) to HeLa-Luc-Cas9 cells. In a white opaque 96-well plate tissue culture plate, HeLa-Luc-Cas9 cells were seeded at a density of 5×10^3 cells per well in 100 μL growth medium (DMEM without phenol red, 5% FBS), and allowed to attach overnight and then supplemented with an additional 100 μL DMEM. ZALs-sgRNA nanoparticles were formulated using the in vitro nanoparticle formulation protocol at the indicated lipid composition and weight ratio (maintaining 50:38.5 ZAL:cholesterol mole ratio, tuningPEG-lipid additive from 5% to 0.5%, and tuning weight ratio from 20:1 ZAL:sgRNA to 5:1 ZAL:sgRNA). Luciferase deletion was evaluated using a single guide RNA designed against luciferase using the CRISPR.mit.edu algorithm, while non-targeting control sgRNA (sgScr) was used as a negative control. The nanoparticles were added to the cells at a dose of 50 ng sgRNA per well and incubated with the cells for 24 h or 48 h. RNAiMax (Invitrogen) formulated according to the manufacturer's protocol with sgLuc or sgScr was used as a positive control. After 24 h or 48 h, the cell viability and luciferase expression were evaluated with the ONE-Glo+Tox Assay cell viability and luciferase assay (Promega).\nSelect ZALs were evaluated in the delivery of single guide RNA (sgRNA) to HeLa-Luc-Cas9 cells. In a white opaque 96-well plate tissue culture plate, HeLa-Luc-Cas9 cells were seeded at a density of 5×10^3 cells per well in 100 μL growth medium (DMEM without phenol red, 5% FBS), and allowed to attach overnight and then supplemented with an additional 100 μL DMEM. ZNPs encapsulating sgRNA were formulated using the in vitro nanoparticle formulation protocol at the indicated lipid composition and weight ratio (maintaining 50:38.5 (ZAL:cholesterol mole ratio), tuning PEG-lipid additive from 5% to 0.5%, and tuning weight ratio from 20:1 ZAL:sgRNA to 5:1 ZAL:sgRNA). Non-targeting control sgRNA (sgCtrl) was used as a negative control. The nanoparticles were added to the cells at the appropriate dose of sgRNA and incubated with the cells for 48 h. The cell viability and luciferase expression were evaluated with the ONE-Glo+Tox Assay (Promega), normalized to untreated cells (N=4+/−standard deviation).", "key": {"[1]": {"settings": "PEG 2%, 1%, 0.5%, ZAL:sgRNA 20:1, 10:1, 7.5:1, 5:1, 7.4 nM, 48 h"}}, "note": "Entries after “also recorded” stand apart in the source; their conditions may differ."}
{"compound": "CCCCCCCCC(O)CN(CCC(=O)NCC[N+](C)(C)CCCS(=O)(=O)[O-])CCN(CCN(CC(O)CCCCCCCC)CC(O)CCCCCCCC)CCN(CC(O)CCCCCCCC)CC(O)CCCCCCCC", "note": "(centres unmarked) [ZA3-Ep10]", "values": [{"measurement": "formulation with the best luciferase editing", "setting": "[1]", "result": "7.5:1 weight ratio and 0.5% PEG"}, {"measurement": "sgLuc delivery by formulations with tuned PEG content and weight ratio", "setting": "[1]", "result": "potent"}, {"measurement": "sgRNA (sgLuc) delivery, rank among lead ZALs", "setting": "lead ZALs from the siRNA screen, HeLa-Luc-Cas9 cells, 48 h", "result": "most highly potent; also recorded: efficacious"}, {"measurement": "luciferase expression versus sgRNA dose", "setting": "sgLuc ZNPs, HeLa-Luc-Cas9 cells", "result": "dose-dependent decrease"}, {"measurement": "luciferase silencing", "setting": "sgRNA at 14.7 nM and 7.4 nM, 48 h, ZNPs 50:38.5:1 ZAL:cholesterol:PEG-lipid, 20:1 ZAL:sgRNA weight ratio", "result": "> 95", "unit": "%"}]}
